The record followed here is BindingDB's records for doi:10.3109/14756366.2011.596836 (Artvin Coruh University, 2012).

Common to all, as to experiment: CA Activity Assay
Conditions in all cases: pH 7.4

One assay addresses Carbonic anhydrase 1 (Homo sapiens, UniProt P00915). As for the experimental part: (§1) The enzymatic reaction, in a total volume of 3.0 mL, contained 1.4-mL 0.05-M Tris SO4 buffer (pH 7.4), 1-mL 3-mM 4-NPA, 0.5-mL H2O and 0.1-mL enzyme solution. A reference measurement was obtained by preparing the same cuvette without enzyme solution. The inhibitory effects of the phenolic compounds were examined. All compounds were tested in triplicate at each concentration used. Different concentrations of the compounds were used.

The next assay has as its target Carbonic anhydrase 2 (Homo sapiens, UniProt P00918). As for the experimental part:
as §1

In another assay the target is Carbonic anhydrase 6 (Homo sapiens, UniProt P23280). The method, then:
as §1

Chain of Carbonic anhydrase 1 (P00915 whole entry): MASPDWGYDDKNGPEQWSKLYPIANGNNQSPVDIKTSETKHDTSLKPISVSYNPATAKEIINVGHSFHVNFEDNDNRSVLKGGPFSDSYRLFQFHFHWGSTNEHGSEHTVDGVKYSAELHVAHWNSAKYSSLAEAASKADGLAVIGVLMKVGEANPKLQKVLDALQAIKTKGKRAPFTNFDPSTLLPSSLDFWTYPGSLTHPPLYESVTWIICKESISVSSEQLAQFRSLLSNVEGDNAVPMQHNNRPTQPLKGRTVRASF
Chain of Carbonic anhydrase 6 (P23280 whole entry): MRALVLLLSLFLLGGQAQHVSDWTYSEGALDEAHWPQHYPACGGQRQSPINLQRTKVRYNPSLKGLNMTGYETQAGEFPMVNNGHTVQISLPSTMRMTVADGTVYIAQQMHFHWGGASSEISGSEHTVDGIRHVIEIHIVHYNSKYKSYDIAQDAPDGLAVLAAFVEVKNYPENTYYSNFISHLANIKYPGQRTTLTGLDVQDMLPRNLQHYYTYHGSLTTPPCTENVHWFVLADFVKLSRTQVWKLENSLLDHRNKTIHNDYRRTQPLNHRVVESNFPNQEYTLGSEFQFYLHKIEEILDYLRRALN

For `O=C(c1ccc(O)c(O)c1)c1ccc(O)c(O)c1` [Bis(3,4-dihydroxyphenyl)methanone], the Ki at Carbonic anhydrase 1 was found to be 18 µM; on Carbonic anhydrase 2, 1.44 µM; at Carbonic anhydrase 6 it was 11.4 µM.
For `COc1ccc(C(=O)c2ccc(OC)c(OC)c2)cc1OC` [hCA inhibitor, 2], the results for the Ki on Carbonic anhydrase 1, on Carbonic anhydrase 2 and at Carbonic anhydrase 6 were 403 µM, 47.8 µM and 293 µM, respectively.

In general, Ki refers to a dissociation constant, usually derived from enzyme kinetics or from competition with a known ligand. A high value points to a looser hold on the target.
